{
  "source": "patent US5288723A",
  "about": "“A composition and a method of using veratridine and epinephrine as a local anesthetic” (priority 1991, dated 1994)",
  "system": "A-fibers of rabbit vagus nerve",
  "test": "Extracellular recording of compound action potentials (APc), desheathed vagus nerve, A-fibers",
  "set-up": "species or system New Zealand white rabbit",
  "settings": "for inhibition at 0.5 µM / activity at 0.5 µM: Oryctolagus cuniculus, 0.5 μM VTD; for inhibition at 0.5 µM: 1.25 h, mean ± SEM; for activity at 0.5 µM: read-out: Amplitude of single APc elevation relative to amplitude at beginning of VTD exposure",
  "protocol": "Adult male New Zealand white rabbits (3±0.5 kg) were pretreated intramuscularly with a mixture of ketamine (200 mg), xylazine (20 mg) and atropine (0.4 mg) for sedation. Ten minutes after this treatment, the animals were anesthetized with diethyl ether. After cessation of respiration, a longitudinal skin incision was made, and the cervical portion of both vagus nerves was dissected. The vagus nerves were temporarily stored at room temperature (22° C.) in a beaker containing modified HEPES Liley (HL) solution stirred constantly by aeration with a mixture of 95% oxygen and 5% carbon dioxide.\nThe modified HL solution used for bathing the nerve and subsequent drug perfusion consisted of (in mM): NaCl, 118.0; KCl, 5.0; CaCl2 2H2 0, 2.0; MgCl2 6H2 0, 1.0; α-D(+)-glucose, 11.0; NaHC03, 25.0; and N-2-hydroxy-ethylpiperazine-N-2-ethanesulfonic acid (HEPES) buffer, 5.0 mM. The pH was adjusted to 7.4±0.05 by addition of 1 N NaOH. The perfusion solution was bubbled with a gas mixture of 95% oxygen and 5% carbon dioxide at a vigorous rate just before flowing onto the nerve. The pH was stabilized by the HEPES buffer and maintained at 7.4.\nVTD free base (no. V-5754, lot 58F-7828, Sigma, St. Louis, Mo.) was stored in a desiccator below 0° C. and was used to prepare a 2 mM stock solution in dimethyl sulfoxide [DMSO], Fisher Scientific, lot 861316), which also was stored at below 0° C. VTD, a steroidal alkaloid (FIG. 2A) that is produced by certain lilies, has a solubility limited to approximately 10^-3 M in aqueous slat solutions [Kupchan and By, \"The Veratrum Group,\" in Alkaloids, Vol. 10, Manske, R.H.F. (ed.), New York, Academic Press (1968), pp. 193-285]. The stock VTD solution was diluted to final concentrations of 0.2-10 μM by the addition of HL. The maximum equivalent content of DMSO is 0.5%, and in three control experiments we detected no change in electrophysiologic behavior with 1% DMSO.\nThe nerves were cleaned and desheathed by microdissection before mounting in an airtight chamber (FIG. 2B) [Gissen et al., Anesthesiology 53:467-474 (1980)]. Petroleum jelly (White Petrolatum, Denison Laboratories) seals separated a central, 11-mm length of the nerve from the lateral pools, used for stimulating and recording with electrodes made of platinum wire. The central section of the chamber (volume 0.25 ml) was perfused with HL solution at 0.5 ml.min.^-1. The lateral pools containing the moistened ends of the nerves adsorbed to the electrodes were filled with paraffin oil. The APc s were propagated over 21 mm, from the stimulating to the recording electrodes, with the proximal recording electrodc located 4.5 mm from the edge of the central, drug exposure chamber. Thus, measured APc s were conducted in nerve exposed to drug for half of the conduction pathway, and had been conducting through drug-free medium over a distance containing at least two or three nodes of Ranvier (in the fastest-conducting fibers), before reaching the recording electrodes.\nThe signal from the nerve was amplified 50 times (model AK 475 operational amplifier, Metametrics, Carlisle, Mass.) and passed to the oscilloscope preamplifiers (model 5A 22N, Tektronix). The preparation was not considered acceptable unless the APc signals from the nerve exceeded 1.5 mV for A-fibers, 0.5 mV for B-fibers, and 0.3 mV for C-fibers.\nEach nerve was exposed to only one VTD concentration, and each concentration was tested in four or five separate nerves, except in tie sheathed nerves, for which only two nerves were used. The temperature was 20°-22° C.\nThe standard protocol used for testing the action of VTD was to record the APc elevations in control HL solution for 30-60 min. before adding VTD; for 60-75 min. during VTD application; and for 60-75 min. after replacement with VTD-free HL. […]",
  "note": "“Also recorded” adds a separate entry of the source. Like-named read-outs stand apart in the source and are kept apart here.",
  "data": [
    {"smiles": "COc1ccc(C(=O)OC2CCC3(C)C4CCC5C6(O)CC(O)C7(O)C(CN8CC(C)CCC8C7(C)O)C6(O)CC53OC24O)cc1OC", "note": "(stereo not drawn) [VTD, veratridine]", "values": [
      {"measurement": "Response of A-fibers during repetitive stimulation compared with drug-free solutions", "setting": "2 μM VTD, 100-Hz stimulation", "result": "almost identical to that in drug-free solutions before and after VTD exposure"},
      {"measurement": "Single-stimulus APc after VTD compared with no-VTD controls", "setting": "A-fibers, 0.5 μM, 60 min. in VTD, P>0.05", "result": "no significant difference"},
      {"measurement": "Decline of APc elevation at the second stimulation", "setting": "A-fibers, 2 μM VTD, 100 Hz, normal refractory behavior", "result": "about 15%"},
      {"measurement": "Reversal of use-dependent depression by washing", "setting": "A-fibers, VTD-free HL wash", "result": "did not reverse"},
      {"measurement": "inhibition at 0.5 µM", "setting": "A-fibers, 100 Hz, after 75 min. in VTD, P < 0.001 vs control, read-out: Percent inhibition of the tenth APc in a train compared to the first, VTD", "result": "25.3 ± 3.5", "unit": "%"},
      {"measurement": "inhibition at 0.5 µM", "setting": "A-fibers, 100 Hz, after 75 min. of wash, read-out: Percent inhibition of the tenth APc in a train compared to the first, HL (Wash)", "result": "27 ± 2.8", "unit": "%"},
      {"measurement": "activity at 0.5 µM", "setting": "A-fibers, during VTD exposure", "result": "117 ± 7", "unit": "%"},
      {"measurement": "activity at 0.5 µM", "setting": "A-fibers, wash period", "result": "123 ± 14", "unit": "%"},
      {"measurement": "Use-dependent reduction of APc by VTD, A-fibers", "setting": "up to 2 μM", "result": "modified little; also recorded: inconsequential for A-fibers"}
    ]}
  ]
}
